Results from the supplement of paper PMC4858399.
Structures can show the parent of a compound that is named as a salt.

Key:
Settings in all cases: exposure time 48 h
[1] = test system: Caenorhabditis elegans N2; test: AC50 for larval growth inhibition (Hill fit); higher = less potent
Method in brief: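 Synchronised C. elegans N2 L1 larvae, 50 per well in 96-well plates, were grown at 20°C for 48 h in K-medium with killed OP50, 1% DMSO and 0.5–200 µM chemical. Worm size was read on a COPAS Biosort as extinction, log-transformed and averaged per well, and only wells holding at least 10 worms were kept. AC50 was obtained by a constrained Hill fit using weighted genetic-algorithm regression, with out-of-range values censored.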

[2] = test system: Caenorhabditis elegans N2; test: lowest effective concentration for larval growth inhibition (size below effect threshold); higher = less potent
Method in brief: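 Worm size was taken as per-worm extinction on the Biosort, log-transformed and turned into well means. The larvae (C. elegans N2, L1 stage, 50 per 96-well) had spent 48 h at 20°C in K-medium with killed bacteria, 1% DMSO and 0.5, 1, 5, 10, 50, 100 or 200 µM chemical. The lowest effective concentration marks the first dose where the plate-adjusted mean size drops under a cutoff and remains under it at every higher dose; the cutoff is 5.665.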

[3] = test system: Caenorhabditis elegans N2; test: mean nematode size ln(EXT) after 48 h, plate-adjusted (DMSO control set to 6) (ln(EXT), control-adjusted); higher = larger nematodes / less growth inhibition
Method in brief: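 Synchronised C. elegans N2 L1 larvae were grown for 48 h at 20°C in K-medium containing killed OP50, 1% DMSO and 0.5–200 µM chemical, at 50 per well and 4–6 wells per treatment. The Biosort recorded extinction for each worm, and a growth model removed debris. Worm size was obtained by natural-logging these values and averaging them per well. For plate adjustment, the vehicle control mean was subtracted and 6 was added.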

SMILES	AC50 for larval growth inhibition [1] [µM]	lowest effective concentration [2] [µM]	mean nematode size ln(EXT) (ln) ([3]; 0.5 µM)	mean nematode size ln(EXT) (ln) ([3]; 1 µM)	mean nematode size ln(EXT) (ln) ([3]; 5 µM)	mean nematode size ln(EXT) (ln) ([3]; 10 µM)	mean nematode size ln(EXT) (ln) ([3]; 50 µM)	mean nematode size ln(EXT) (ln) ([3]; 100 µM)	mean nematode size ln(EXT) (ln) ([3]; 200 µM)
Oc1c(Cl)cc(Cl)cc1Cl [2,4,6-Trichlorophenol]	> 200	200	5.87	5.85	5.9	5.83	5.82	5.87	5.66
CN(C)CCCN1c2ccccc2Sc2ccc(Cl)cc21 [Chlorpromazine hydrochloride]	46.3	50	5.89	5.87	5.82	5.71	4.47	3.85	3.07
CCOc1ccc2[nH]cc(C(=O)NCc3ccccc3)c(=O)c2n1	> 200	200	5.85	5.84	5.84	5.96	5.91	5.86	5.63
Cn1sc(Cl)cc1=O [5-Chloro-2-methyl-3(2H)-isothiazolone]	> 200	200	5.96	5.93	5.95	6	5.9	5.82	5.55
CC(C)OC(=O)Nc1cccc(Cl)c1 [Chlorpropham]	60.7	100	5.75	5.77	5.9	5.95	5.82	4.79	4.32
Cc1c2ccccc2c(C)c2c1ccc1ccccc12 [7,12-Dimethylbenz(a)anthracene]	110	5	6.05	5.87	5.53	5.48	5.02	4.89	4
CCCCCC/C(C=O)=C\c1ccccc1 [2-Benzylideneoctanal]	28.8	50	5.84	5.85	5.79	5.69	5.13	5.22	5.01
c1ccc2ccccc2c1 [Naphthalene]	> 200	200	5.99	5.93	5.96	5.78	5.87	5.92	4.83
O=P(OC(CCl)CCl)(OC(CCl)CCl)OC(CCl)CCl [Tris(1,3-dichloro-2-propyl) phosphate (TDCPP)]	117	50	5.85	5.86	5.83	5.77	5.39	4.98	3.63
CC(C)CCCCCCCOC(=O)CCCCC(=O)OCCCCCCCC(C)C [Diisodecyl adipate]	> 200	200	5.86	5.91	5.83	5.89	5.89	5.89	5.53
